Our source for the relative viability values is the supplement of paper PMC10307832.

Holding throughout (assay): relative viability (nuclei count vs DMSO), 5 days (fraction); higher = more cells survive
Compound in experiment [1]: C(C(=O)C(=O)O)Br [Bromopyruvate] + CS(=O)(=O)N1CCN(Cc2cc3nc(-c4cccc5[nH]ncc45)nc(N4CCOCC4)c3s2)CC1 [Pictilisib] (partner 1 µM)
An outline of the steps: (§1)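 Dosing by pin tool came one day after lung cancer cell lines were seeded in 1536-well plates, using either one drug or a fixed anchor-drug dose plus five library-drug doses (not always all listed) in √10 steps. After 5 days, nuclei were counted on 4× images. Relative viability is treated-well nuclei count divided by vehicle-well nuclei count, and values are medians of duplicate plates.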

Compound in experiment [2]: C(C(=O)C(=O)O)Br [Bromopyruvate] + O=C(c1cc(Cc2n[nH]c(=O)c3ccccc23)ccc1F)N1CCN(C(=O)C2CC2)CC1 [Olaparib] (partner 8 µM)
An outline of the steps: as §1

Compound in experiment [3]: C(C(=O)C(=O)O)Br [Bromopyruvate] + CC(C)C[C@H](NC(=O)[C@H](Cc1ccccc1)NC(=O)c1cnccn1)B(O)O [Bortezomib] (partner 0.002 µM)
Put shortly:
as §1

Compound in experiment [4]: CC(O)(CS(=O)(=O)c1ccc(F)cc1)C(=O)Nc1ccc(C#N)c(C(F)(F)F)c1 [Bicalutamide] + Cc1nc(Nc2ncc(C(=O)Nc3c(C)cccc3Cl)s2)cc(N2CCN(CCO)CC2)n1 [Dasatinib] (partner 0.075 µM)
An outline of the steps: as §1

Consider NCI-H2087, for which the relative viability is 0.834 in experiment [1] (first compound 1 µM); 0.984 in experiment [1] (first compound 3.162 µM); 0.96 in experiment [1] (first compound 10 µM); 0.844 in experiment [1] (first compound 31.62 µM); 0.886 in experiment [1] (first compound 100 µM); 0.6 in experiment [2] (first compound 1 µM). For the same cell line, the relative viability amounted to 0.574 in experiment [2] (first compound 3.162 µM); 0.391 in experiment [2] (first compound 10 µM); 0.573 in experiment [2] (first compound 31.62 µM); 0.451 in experiment [2] (first compound 100 µM); 0.878 in experiment [3] (first compound 1 µM); 0.772 in experiment [3] (first compound 3.162 µM). For the same cell line, the relative viability amounted to 0.772 in experiment [3] (first compound 10 µM); 0.793 in experiment [3] (first compound 31.62 µM); 0.9 in experiment [3] (first compound 100 µM); 0.851 in experiment [4] (first compound 0.08 µM); 0.87 in experiment [4] (first compound 0.253 µM); 1.05 in experiment [4] (first compound 0.8 µM). Also, the relative viability in experiment [4] (first compound 2.53 µM) was found to be 0.816.

With NCI-H2126, the relative viability in experiment [1] (first compound 1 µM) amounted to 0.531; in experiment [1] (first compound 3.162 µM), 0.511; in experiment [1] (first compound 10 µM), 0.456; in experiment [1] (first compound 31.62 µM), 0.562; in experiment [1] (first compound 100 µM), 0.509; in experiment [2] (first compound 1 µM) it was 0.912. Moreover, the relative viability in experiment [2] (first compound 3.162 µM) turned out to be 0.879; in experiment [2] (first compound 10 µM), 0.988; in experiment [2] (first compound 31.62 µM) it was 0.939; in experiment [2] (first compound 100 µM), 0.923; in experiment [3] (first compound 1 µM), 1.1; in experiment [3] (first compound 3.162 µM) it was 1.05. The relative viability in experiment [3] (first compound 10 µM) was 1.12; in experiment [3] (first compound 31.62 µM) it was 1.14; in experiment [3] (first compound 100 µM), 1.15; in experiment [4] (first compound 0.08 µM), 0.628; in experiment [4] (first compound 0.253 µM), 0.581; in experiment [4] (first compound 0.8 µM), 0.632. In addition, the relative viability in experiment [4] (first compound 2.53 µM) was determined as 0.555.

Turning to NCI-H2228, the relative viability in experiment [1] (first compound 1 µM) stood at 0.349; in experiment [1] (first compound 3.162 µM) it was 0.37; in experiment [1] (first compound 10 µM) it was 0.402; in experiment [1] (first compound 31.62 µM) it was 0.416; in experiment [1] (first compound 100 µM), 0.635; in experiment [2] (first compound 1 µM) it was 0.813. Further, the relative viability in experiment [2] (first compound 3.162 µM) was found to be 0.635; in experiment [2] (first compound 10 µM), 0.711; in experiment [2] (first compound 31.62 µM) it was 0.567; in experiment [2] (first compound 100 µM), 0.647; in experiment [3] (first compound 1 µM), 0.857; in experiment [3] (first compound 3.162 µM) it was 1.15. Also, the relative viability was determined as 1.36 in experiment [3] (first compound 10 µM); 0.817 in experiment [3] (first compound 31.62 µM); 0.946 in experiment [3] (first compound 100 µM); 0.476 in experiment [4] (first compound 0.08 µM); 0.479 in experiment [4] (first compound 0.253 µM); 0.522 in experiment [4] (first compound 0.8 µM). The relative viability in experiment [4] (first compound 2.53 µM) worked out at 0.55.

As to NCI-H2347, the relative viability is 0.899 in experiment [1] (first compound 1 µM); 0.478 in experiment [1] (first compound 3.162 µM); 0.737 in experiment [1] (first compound 10 µM); 0.541 in experiment [1] (first compound 31.62 µM); 0.677 in experiment [1] (first compound 100 µM); 0.56 in experiment [2] (first compound 1 µM). In addition, the relative viability is 0.536 in experiment [2] (first compound 3.162 µM); 0.511 in experiment [2] (first compound 10 µM); 0.559 in experiment [2] (first compound 31.62 µM); 0.57 in experiment [2] (first compound 100 µM); 0.862 in experiment [3] (first compound 1 µM); 1.19 in experiment [3] (first compound 3.162 µM). The relative viability came out at 0.893 in experiment [3] (first compound 10 µM); 0.723 in experiment [3] (first compound 31.62 µM); 1.08 in experiment [3] (first compound 100 µM); 0.318 in experiment [4] (first compound 0.08 µM); 0.307 in experiment [4] (first compound 0.253 µM); 0.299 in experiment [4] (first compound 0.8 µM). Further, the relative viability in experiment [4] (first compound 2.53 µM) was 0.308.

With NCI-H2405, the relative viability in experiment [1] (first compound 1 µM) worked out at 0.441; in experiment [1] (first compound 3.162 µM), 0.524; in experiment [1] (first compound 10 µM) it was 0.431; in experiment [1] (first compound 31.62 µM), 0.349; in experiment [1] (first compound 100 µM) it was 0.517; in experiment [2] (first compound 1 µM), 0.879. In addition, the relative viability in experiment [2] (first compound 3.162 µM) is 0.859; in experiment [2] (first compound 10 µM) it was 0.916; in experiment [2] (first compound 100 µM), 0.402; in experiment [3] (first compound 1 µM), 1.02; in experiment [3] (first compound 3.162 µM), 0.992; in experiment [3] (first compound 10 µM), 1.19. For the same cell line, the relative viability in experiment [3] (first compound 31.62 µM) is 0.954; in experiment [3] (first compound 100 µM) it was 1.04; in experiment [4] (first compound 0.08 µM), 0.23; in experiment [4] (first compound 0.253 µM), 0.199; in experiment [4] (first compound 0.8 µM) it was 0.235; in experiment [4] (first compound 2.53 µM), 0.154.

NCI-H3122: the relative viability in experiment [1] (first compound 1 µM) is 0.553; in experiment [1] (first compound 3.162 µM), 0.664; in experiment [1] (first compound 10 µM), 0.879; in experiment [1] (first compound 31.62 µM), 0.554; in experiment [1] (first compound 100 µM), 0.567; in experiment [2] (first compound 1 µM) it was 0.647. Further, the relative viability turned out to be 0.663 in experiment [2] (first compound 3.162 µM); 0.631 in experiment [2] (first compound 10 µM); 0.586 in experiment [2] (first compound 31.62 µM); 0.604 in experiment [2] (first compound 100 µM); 1.02 in experiment [3] (first compound 1 µM); 1.01 in experiment [3] (first compound 3.162 µM). Further, the relative viability in experiment [3] (first compound 10 µM) stood at 1.07; in experiment [3] (first compound 31.62 µM) it was 0.971; in experiment [3] (first compound 100 µM), 1.02; in experiment [4] (first compound 0.08 µM), 0.922; in experiment [4] (first compound 0.253 µM), 0.791; in experiment [4] (first compound 0.8 µM), 0.938. For the same cell line, the relative viability in experiment [4] (first compound 2.53 µM) came out at 0.889.
